{
  "source": "patent US20050182105A1",
  "about": "(priority 2004, published 2005)",
  "key": {"[1]": {"biological_target": "T1, AR (Rattus norvegicus, UniProt P15207)", "T1 sequence (P15207 1-902)": "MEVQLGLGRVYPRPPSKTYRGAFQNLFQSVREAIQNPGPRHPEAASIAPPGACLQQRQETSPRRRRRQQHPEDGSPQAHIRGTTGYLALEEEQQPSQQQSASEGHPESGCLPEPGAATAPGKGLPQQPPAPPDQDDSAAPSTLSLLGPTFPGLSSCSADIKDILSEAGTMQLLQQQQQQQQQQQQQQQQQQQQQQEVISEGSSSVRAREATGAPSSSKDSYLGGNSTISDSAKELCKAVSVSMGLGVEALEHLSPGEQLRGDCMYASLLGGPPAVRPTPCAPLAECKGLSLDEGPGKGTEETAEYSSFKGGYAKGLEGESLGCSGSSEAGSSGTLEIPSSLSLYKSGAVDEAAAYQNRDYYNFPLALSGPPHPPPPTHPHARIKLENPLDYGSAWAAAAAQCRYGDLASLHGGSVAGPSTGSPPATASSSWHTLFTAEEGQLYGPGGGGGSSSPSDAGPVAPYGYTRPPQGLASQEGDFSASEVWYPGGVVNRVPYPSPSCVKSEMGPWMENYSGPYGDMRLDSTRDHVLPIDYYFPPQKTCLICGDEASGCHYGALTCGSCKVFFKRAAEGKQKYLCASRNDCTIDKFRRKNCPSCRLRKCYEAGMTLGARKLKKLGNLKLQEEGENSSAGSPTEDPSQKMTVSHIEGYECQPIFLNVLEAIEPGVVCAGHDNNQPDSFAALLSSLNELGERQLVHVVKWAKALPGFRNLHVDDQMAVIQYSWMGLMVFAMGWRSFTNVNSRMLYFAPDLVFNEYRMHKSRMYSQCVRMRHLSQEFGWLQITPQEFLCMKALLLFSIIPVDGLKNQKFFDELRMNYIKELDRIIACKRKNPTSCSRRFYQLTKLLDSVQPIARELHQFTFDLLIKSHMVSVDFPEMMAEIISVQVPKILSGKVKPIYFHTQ", "excerpt": "Biol. Med., 83, 175 (1953); B. L. Beyler et al, “Methods for evaluating anabolic and catabolic agents in laboratory animals”, J. Amer. Med. Women's Ass., 23, 708 (1968); H. Fukuda et al., “Investigations of the levator ani muscle as an anabolic steroid assay”, Nago Dai. Yak. Ken. Nem. 14, 84 (1966) the disclosures of which are herein incorporated by reference.\nThe basis of this assay lies in the well-defined action of androgenic agents on the maintenance and growth of muscle tissues and sexual accessory organs in animals and man. […] J. Anat. […] Ital. Biol. Sper. […] II. […] Ital. Biol. Sper. 42, 1600 (1966); A. Boris et al., Steroids 15, 61 (1970). As described above, the effects of androgens on maintenance of male sexual accessory organs, such as the prostate and seminal vesicles, is well described. Castration results in rapid involution and atrophy of the prostate and seminal vesicles. This effect can be reversed by exogenous addition of androgens. Since both the levator ani muscle and the male sex organs are the tissues most responsive to the effects of androgenic agents, this model is used to determine the androgen dependent reversal of atrophy in the levator ani muscle and the sex accessory organs in immature castrated rats. Sexually mature rats (200-250 g, 6-8 weeks-old, Sprague-Dawley, Harlan) were acquired castrated from the vendor […]. […]"}, "[2]": {"biological_target": "glucocorticoid receptor (Homo sapiens, UniProt P04150)", "sequence (P04150 whole entry)": "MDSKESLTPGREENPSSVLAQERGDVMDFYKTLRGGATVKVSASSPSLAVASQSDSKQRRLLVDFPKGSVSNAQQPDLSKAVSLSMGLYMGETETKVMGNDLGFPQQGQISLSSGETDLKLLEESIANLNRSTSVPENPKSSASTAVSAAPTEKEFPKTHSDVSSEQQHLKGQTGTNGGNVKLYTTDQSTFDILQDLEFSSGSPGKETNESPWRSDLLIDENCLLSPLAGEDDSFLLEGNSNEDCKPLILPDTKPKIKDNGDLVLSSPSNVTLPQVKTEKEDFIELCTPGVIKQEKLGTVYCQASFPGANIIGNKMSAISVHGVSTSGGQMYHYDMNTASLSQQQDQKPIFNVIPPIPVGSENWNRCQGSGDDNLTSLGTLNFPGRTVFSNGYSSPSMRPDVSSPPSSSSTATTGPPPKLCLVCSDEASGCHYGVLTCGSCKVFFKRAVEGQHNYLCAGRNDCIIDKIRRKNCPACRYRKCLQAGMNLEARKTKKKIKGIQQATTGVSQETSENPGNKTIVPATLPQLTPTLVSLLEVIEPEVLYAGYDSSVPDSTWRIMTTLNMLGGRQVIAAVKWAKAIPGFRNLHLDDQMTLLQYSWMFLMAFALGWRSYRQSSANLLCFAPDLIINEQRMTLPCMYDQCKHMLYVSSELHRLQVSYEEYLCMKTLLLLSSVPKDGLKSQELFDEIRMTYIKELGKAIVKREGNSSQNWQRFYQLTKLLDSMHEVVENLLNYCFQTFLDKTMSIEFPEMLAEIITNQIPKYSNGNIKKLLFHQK", "assay": "cell-based", "details": "A549, read-out: % inhibition of the reporter system as compared to the buffer control with 10 ng/mL PMA alone", "protocol": "The AP-1 assay is a cell-based luciferase reporter assay. A549 cells, which contain endogenous glucocorticoid receptor, were stably transfected with an AP-1 DNA binding site attached to the luciferase gene. Cells are then grown in RPMI+10% fetal calf serum (charcoal-treated)+Penicillin/Streptomycin with 0.5 mg/mL geneticin. Cells are plated the day before the assay at approximately 40000 cells/well. On assay day, the media is removed by aspiration and 20 μL assay buffer (RPMI without phenol red+10% FCS (charcoal-treated)+Pen/Strep) is added to each well. At this point either 20 μL assay buffer (control experiments), the compounds of the present invention (“test compounds”) (dissolved in DMSO and added at varying concentrations) or dexamethasome (100 nM in DMSO, positive control) are added to each well. The plates are then pre-incubated for 15 min at 37° C., followed by stimulation of the cells with 10 ng/mL PMA. The plates are then incubated for 7 h at 37° C. after which 40 μL luciferase substrate reagent is added to each well. Activity is measured by analysis in a luminometer as compared to control experiments treated with buffer or dexamethasome."}, "[3]": {"system": "wild type AR (MDA 453 cells)", "details": "read-out: Kd for [3H]-DHT, Scatchard analysis, 4 h at 37° C.", "protocol": "For the whole-cell binding assay, human LNCaP cells (T877A mutant AR) or MDA 453 (wild type AR) in 96-well microtiter plates containing RPMI 1640 or DMEM supplemented with 10% charcoal stripped CA-FBS (Cocaleco Biologicals) respectively, were incubated at 37° C. to remove any endogenous ligand that might be complexed with the receptor in the cells.\nFor the saturation analysis, the difference between the total binding and the non-specific binding, was defined as specific binding. […] See e.g. D. Rodbard, Mathematics and statistics of ligand assays: an illustrated guide: In: J. Langon and J. J. Clapp, eds., Ligand Assay, Masson Publishing U.S.A., Inc., New York, pp. 45-99, (1981), the disclosure of which is herein incorporated by reference.\nTwo replicates were used for each sample. […] After correcting for non-specific binding, IC50 values were determined. […] C2C12 Mouse Myoblast Transactivation Assay"}},
  "data": [
    {"compound": "CCC(=O)O[C@H]1CC[C@H]2[C@@H]3CCC4=CC(=O)CC[C@]4(C)[C@H]3CC[C@]12C", "note": "[TP, testosterone propionate]", "values": [
      {"measurement": "EC50 (increase in organ weight)", "setting": "[1]; castrated rats, organ weight", "value": "~0.03", "unit": "mg"},
      {"measurement": "potency relative to free T", "setting": "[1]; higher potency than free T", "value": "10-30 fold"}
    ]},
    {"compound": "C[C@@H]1C[C@H]2[C@@H]3CCC4=CC(=O)C=C[C@]4(C)[C@@]3(F)[C@@H](O)C[C@]2(C)[C@@]1(O)C(=O)CO", "note": "[dexamethasone]", "values": [
      {"measurement": "inhibition at 10 µM", "setting": "[2]", "value": 65, "unit": "%"}
    ]},
    {"compound": "tritiated dihydrotestosterone [[^3H]-DHT]", "values": [
      {"measurement": "Kd", "setting": "[3]", "value": 0.7, "unit": "nM"}
    ]}
  ]
}
